These results are taken from patent US20260357349A1, “METHODS OF IDENTIFYING AND TREATING CANCER” (Agency for Science, Technology and Research, priority 2022, published 2026).

In one experiment the test system is metastatic RCC. The note with it: monotherapy, cited from earlier work.
The test system of experiment [1] is SMARCA4 and RELA interaction. Nature of the experiment: Co-immunoprecipitation of RELA with SMARCA4 after bortezomib. In kind it is cell-based, human. The following applies: bortezomib treatment. From the text: Data are presented as median+/−25%. Lower whisker is smallest observation greater than or equal to 25% quantile-1.5*interquantile range (IQR). Upper whisker represents the largest observation less than or equal to 75%+1.5*IQR. Amount of normalized RELA protein in the c) input or d) co-immunoprecipitated with SMARCA4 from 3 independent runs. […]

The subject of the next experiment is IκBα / NF-κB. The following applies: mechanism; cited from earlier work.
Experiment [2] concerns NF-κB target genes (786-O cells). In words: RT-qPCR of NF-κB target genes after NF-κB inhibitor, 786-O. In kind it is cell-based, human. The following applies: 0.006 μM bortezomib or 0.6 µM Bay 11-7085, 24 hours. The protocol:
(§1) Colony formation of parental (WT) or PBRM1 knockout (KO) 786-O cells expressing shRNA against non-targeting control (NC), RELA, or NFKB1 cultured with a) 10% or b) 2% serum. c) Gene expression changes of NF-κB target genes in 786-O cells treated with 0.006 μM bortezomib (BTZ) or 0.6 µM Bay 11-7085 for 24 hours (n=3 technical replicates). * p-value<0.05 (two-sided t-test). […] A positive log fold change refers to gain in bortezomib treatment over DMSO. g) Colony formation of 786-O isogenic cells and h) NCC432 isogenic cells treated with bortezomib for a week. Tumor formation of isogenic 786-O cells (i) and NCC432 cells (j) treated with PBS control or 0.5 mg/kg bortezomib (BTZ) in NSG mice. (n=10 tumors per group for 786-O, and n=16 tumors for NCC432 PBS EV group and 12 tumors for NCC432 PBS PBRM1 group and 14 tumors for both NCC432 EV and PBRM1 BTZ groups). Data are presented as mean values+/−SEM. k) Model for the study.

The next experiment has as its system 786-O cells. In words: Colony formation, 786-O isogenic cells. Type of experiment: cell-based, human. The protocol: as §1
Data are presented as median+/−25%. […] Data are presented as mean values+/−SD. e) Tornado plots of RELA and SMARCA4 ChIP-seq signals in parental 786-0 or PBRM1-KO 786-O cells treated with DMSO or 0.005 μM bortezomib for 9 hours. f) Kaplan-Meier curves of NSG mice bearing 786-O isogenic cells treated with PBRM1 control or 0.5 mg/kg bortezomib (WT: n=10 PBS arm, median survival=39 days; n=10 bortezomib arm, median survival=52 days, HR=4.1, p=3E-6, log rank test; KO: n=10 PBS arm, median survival=35 days, n=10 bortezomib arm, median survival=66 days, HR=4.1, p=3E-6, log rank test). g) Kaplan-Meier curves of NSG mice bearing NCC432 isogenic cells treated with PBRM1 control or 0.5 mg/kg bortezomib (EV: n=16 PBS arm, median survival=42 days; n=14 bortezomib arm, median survival=49 days, HR=2.5, p=0.0009, log rank test; PBRM1: n=12 PBS arm, median survival=55 days; n=14 bortezomib arm, median survival=58 days, HR=1.2, p=0.5, log rank test). h) 786-O PBRM1 WT or KO cells were screened against the high-specific SGC epigenetic probe collection and cell viability was measured by colony formation after 1 week of treatment relative to DMSO control. […]

In the next experiment the test system is 786-O tumors. Nature of the experiment: Tumor formation and survival of NSG mice bearing 786-O isogenic cells. In kind it is in vivo. The note with it: for median survival: 0.5 mg/kg bortezomib arm n=10; for HR: bortezomib vs PBS, p=3E-6, log rank test. The protocol: as §1
Data are presented as median+/−25%. Lower whisker is smallest observation greater than or equal to 25% quantile-1.5*interquantile range (IQR). Upper whisker represents the largest observation less than or equal to 75%+1.5*IQR. Amount of normalized RELA protein in the c) input or d) co-immunoprecipitated with SMARCA4 from 3 independent runs. Data are presented as mean values+/−SD. e) Tornado plots of RELA and SMARCA4 ChIP-seq signals in parental 786-0 or PBRM1-KO 786-O cells treated with DMSO or 0.005 μM bortezomib for 9 hours. f) Kaplan-Meier curves of NSG mice bearing 786-O isogenic cells treated with PBRM1 control or 0.5 mg/kg bortezomib (WT: n=10 PBS arm, median survival=39 days; n=10 bortezomib arm, median survival=52 days, HR=4.1, p=3E-6, log rank test; KO: n=10 PBS arm, median survival=35 days, n=10 bortezomib arm, median survival=66 days, HR=4.1, p=3E-6, log rank test). g) Kaplan-Meier curves of NSG mice bearing NCC432 isogenic cells treated with PBRM1 control or 0.5 mg/kg bortezomib (EV: n=16 PBS arm, median survival=42 days; n=14 bortezomib arm, median survival=49 days, HR=2.5, p=0.0009, log rank test; PBRM1: n=12 PBS arm, median survival=55 days; n=14 bortezomib arm, median survival=58 days, HR=1.2, p=0.5, log rank test). h) 786-O PBRM1 WT or KO cells were screened against the high-specific SGC epigenetic probe collection and cell viability was measured by colony formation after 1 week of treatment relative to DMSO control.
All animal studies were conducted in compliance with animal protocols approved by Institutional Animal Care and Use Committee (IACUC) of Singapore. Female NOD/SCID mice (8-10 week old) were implanted subcutaneously with 1×10^6 786-0 cells with either wildtype PBRM1 or PBRM1 knocked out subcutaneously. Male NSG mice (The Jackson laboratory) were implanted with 1×10^6 A498, NCC2112 or NCC432 with or without PBRM1. Tumor volume was monitored every 3-4 days. Tumor volume was calculated as (length×width×width)×π/6. Animals were sacrificed when the tumor volume exceeded 2000 mm^3.
Bortezomib […] was given twice weekly (day1, day 4) to male NSG mice (The Jackson laboratory) via the tail vein. Tumor volume and body weight were monitored every 3-4 days.

[3] abbreviates: phase II trial of 37 patients with metastatic RCC.

Structures are written as SMILES.

Turning to `CC(C)C[C@H](NC(=O)[C@H](Cc1ccccc1)NC(=O)c1cnccn1)B(O)O` [bortezomib], the “ranking of RCC response amongst solid tumors” value in the experiment on metastatic RCC (literature survey of 32 trials) is “most responsive tumor type amongst all solid tumors”. In addition, the partial response in the experiment with metastatic RCC (setting [3]) was 4 patients. In addition, in the experiment with metastatic RCC (setting [3]), the stable disease is given as 14 patients. The “effect on interaction between SMARCA4 and RELA” value in experiment [1] is recorded as “did not significantly affect”. Moreover, in the experiment with IκBα / NF-κB, the “effect on IκBα and NF-κB DNA binding” value is “induces nuclear translocation and accumulation of IκBα which then associates with nuclear NF-κB and inhibits its DNA binding activity”. The “suppressing the expression of NF-κB target genes” value in experiment [2] is “effective at suppressing the expression of NF-κB target genes”. The reducing colony formation result in the experiment on 786-O cells (786-O with and without PBRM1, vs DMSO) was “reducing colony formation”. For the same compound, in the experiment with 786-O cells (786-O, a week), the “reduction of colony formation, PB1-deficient vs PB1-proficient isogenic cells” value is listed as “preferential reduction of colony formation”. Besides, in the experiment on 786-O tumors (0.5 mg/kg bortezomib), the “survival, mice bearing PB1-deficient vs PB1-proficient cells” value is on record as “survived for a longer duration”. In the experiment on 786-O tumors (0.5 mg/kg bortezomib, NSG mice), the “tumor response, PB1-deficient vs PB1-proficient isogenic cells” value is recorded as “responded better”. Besides, the median survival is 66 days in the experiment with 786-O tumors (786-O KO, PBS arm 35 days) and 52 days in the experiment on 786-O tumors (786-O WT, PBS arm 39 days). Also, the HR with 786-O tumors (786-O KO) and in the experiment with 786-O tumors (786-O WT) was 4.1 in each case. Also, in the experiment on 786-O tumors (786-O and NCC432, Example 2 summary), the “selectivity for PB1-deficient tumors (summary)” value is listed as “selectively targets PB1-deficient tumors”.
